Holding throughout (assay type): cell-based
One assay concerns the target T1, PfFNT wildtype (Plasmodium falciparum, UniProt O77389).
T1 construct: expressed in transfected cells; host or cells: Saccharomyces cerevisiae W303-1A jen1Δ ady2Δ, plasmid pDR196
Kind of assay: Inhibition of radiolabelled L-lactate uptake in yeast expressing wild-type PfFNT. Here is the method:
(§1) Plasmodium falciparum were kept in culture in 5% 0+ erythrocytes in RPMI 1640 medium containing 0,5% Albumax at 37 °C. […] Medium containing test compounds was exchanged every 24 h. In order to test for the propensity of parasites to develop resistance to a given substance, 3D7 parasites were grown in the presence of 3 x IC50 of a test for 30 days. Thereafter the drug was removed by exchanging the medium, and the day recorded when parasites resurfaced in the culture. As an alternative to Plasmodium falciparum, the FNT of the wild-type plasmodium (available under accession number PF3D7_0316600 in the data bank PlasmoDB) and the FNT (G107S mutant FNT) of the resistant plasmodia were expressed in the yeast Saccharomyces cerevisiae W303-1A jen1Δ ady2Δ from plasmid pDR196 (PMA promoter). In the yeast, the endogenous genes for the monocarboxylate transporter Jen1p (sequence accession No. CAA82062 NCBI) and Ady2p (sequence accession No. KZV12856) were deleted (obtained from M. Casal, Universidade do Minho, Portugal).
(§2) This yeast was grown in SD medium with addition of adenine, histidine, leucine, tryptophan and 2 % (wt/v) glucose at 30 °C up to an OD600 of 0.8 to 1.0, harvested by centrifugation and washed once with water and centrifuged down again, and suspended in 50 mM HEPES/TRIS (pH 6.8) and adjusted to an OD600 of 50± 10% and stored on ice. For contacting with one of the compounds a compound of one step of a dilution series in DMSO was provided in a reaction vessel and onto this 80 µL of the yeast suspension were pipetted. After an incubation on ice for 15 to 20 min 20 µL 5 mM Na-L-lactate plus 0.04 µCi radioactively labelled L-(1-^14C) lactate was added. The lactate concentration obtained was 1 mM. After an incubation of 30 s the uptake of lactate was stopped by a rapid dilution by means of adding of 1 ml ice cold water. From the yeast suspension diluted this way the yeast cells were brought onto a filter membrane by vacuum filtration, washed with 7 ml cold water and transferred with the filter membrane into 3 ml scintillation cocktail. After 24 h of incubation at 18 °C in the scintillation cocktail, in which the cells were lysed, the amount of radioactively labelled lactate was measured by means of a scintillation counter. The total amount of lactate which was taken up by the yeast was calculated from the measured amount of radioactively labelled lactate. As a positive control the yeast was treated equally in parallel testing with DMSO without one of the compounds and was regarded as 100% FNT activity, respectively 0% inhibition. In tests with the compound a lower amount of lactate taken up was found in comparison to the parallel positive control. As a negative control yeast was treated in parallel in which the endogenous genes for the monocarboxylate transporters Jen1p and Ady2p were deleted, but the FNT from plasmodium was not expressed. This negative control was regarded as 0% FNT activity, respectively 100% inhibition.

Another assay concerns the target FNT of P. vivax (PvFNT) (Plasmodium vivax, UniProt A0A1G4GWI6). The assay is described as follows: Inhibition of the FNT of P. vivax.
Assay [1] deals with FNT of P. knowlesi (PkFNT) (Plasmodium knowlesi, UniProt A0A679KXN5). Kind of assay: Inhibition of the FNT of P. knowlesi.
Chain of FNT of P. knowlesi (PkFNT) (A0A679KXN5 whole entry): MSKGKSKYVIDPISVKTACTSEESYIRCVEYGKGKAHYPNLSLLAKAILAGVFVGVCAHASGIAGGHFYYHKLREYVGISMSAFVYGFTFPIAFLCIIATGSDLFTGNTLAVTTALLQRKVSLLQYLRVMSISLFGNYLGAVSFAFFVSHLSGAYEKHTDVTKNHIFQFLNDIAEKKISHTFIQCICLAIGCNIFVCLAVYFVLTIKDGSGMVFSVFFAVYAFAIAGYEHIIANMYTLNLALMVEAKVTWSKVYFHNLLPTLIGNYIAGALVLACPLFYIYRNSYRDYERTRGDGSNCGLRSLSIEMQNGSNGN
A further assay concerns the target T2, PfFNT G107S (Plasmodium falciparum, UniProt O77389, G107S).
T2 construct: expressed in transfected cells; host or cells: Saccharomyces cerevisiae W303-1A jen1Δ ady2Δ, plasmid pDR196
T2 sequence (O77389 1-309 G107S): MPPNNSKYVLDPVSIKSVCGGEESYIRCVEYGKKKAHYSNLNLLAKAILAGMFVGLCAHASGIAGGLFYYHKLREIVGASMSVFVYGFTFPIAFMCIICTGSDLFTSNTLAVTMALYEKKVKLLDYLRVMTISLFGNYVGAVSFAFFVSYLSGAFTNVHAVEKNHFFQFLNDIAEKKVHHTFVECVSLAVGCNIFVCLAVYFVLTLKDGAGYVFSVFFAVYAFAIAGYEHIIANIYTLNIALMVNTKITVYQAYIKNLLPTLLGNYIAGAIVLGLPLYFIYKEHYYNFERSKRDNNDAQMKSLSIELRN
The assay is described as follows: Inhibition of radiolabelled L-lactate uptake in yeast expressing G107S mutant PfFNT. Here is the method:
as §1, §2

The next assay concerns the target FNT of P. ovale (PoFNT) (Plasmodium ovale, UniProt A0A1D3TGZ2). Kind of assay: Inhibition of the FNT of P. ovale.
Assay [2] addresses FNT of P. malariae (PmFNT) (Plasmodium malariae, UniProt A0A1C3KYI2). Kind of assay: Inhibition of the FNT of P. malariae.
[3] abbreviates: read-out: IC50 for the FNT of P. vivax (PvFNT).
Where [4] appears, read: G107S mutant FNT, 1 mM lactate, pH 6.8, 30 s uptake, read-out: PfFNT G107S IC50.

Each structure is given as a SMILES string. Where two headings read alike, the source gives them in different places.

Chain of FNT of P. vivax (PvFNT) (A0A1G4GWI6 whole entry): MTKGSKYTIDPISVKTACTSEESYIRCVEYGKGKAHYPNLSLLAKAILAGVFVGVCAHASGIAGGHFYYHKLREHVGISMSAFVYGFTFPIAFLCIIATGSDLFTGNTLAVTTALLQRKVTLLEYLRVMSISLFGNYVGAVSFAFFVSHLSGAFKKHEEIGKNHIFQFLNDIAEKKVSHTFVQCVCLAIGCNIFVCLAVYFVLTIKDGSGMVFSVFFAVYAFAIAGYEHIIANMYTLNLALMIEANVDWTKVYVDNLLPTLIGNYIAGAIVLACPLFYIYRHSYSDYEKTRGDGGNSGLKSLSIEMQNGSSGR
T1 sequence (O77389 whole entry): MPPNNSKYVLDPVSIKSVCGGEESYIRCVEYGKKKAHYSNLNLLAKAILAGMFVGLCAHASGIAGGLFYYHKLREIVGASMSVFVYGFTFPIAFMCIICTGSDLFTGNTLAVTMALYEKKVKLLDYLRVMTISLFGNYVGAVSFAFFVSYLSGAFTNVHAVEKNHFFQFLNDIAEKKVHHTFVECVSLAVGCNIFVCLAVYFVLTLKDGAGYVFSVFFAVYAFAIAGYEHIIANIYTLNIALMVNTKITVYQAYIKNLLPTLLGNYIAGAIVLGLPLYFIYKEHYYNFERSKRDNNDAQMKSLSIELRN
Chain of FNT of P. malariae (PmFNT) (A0A1C3KYI2 whole entry): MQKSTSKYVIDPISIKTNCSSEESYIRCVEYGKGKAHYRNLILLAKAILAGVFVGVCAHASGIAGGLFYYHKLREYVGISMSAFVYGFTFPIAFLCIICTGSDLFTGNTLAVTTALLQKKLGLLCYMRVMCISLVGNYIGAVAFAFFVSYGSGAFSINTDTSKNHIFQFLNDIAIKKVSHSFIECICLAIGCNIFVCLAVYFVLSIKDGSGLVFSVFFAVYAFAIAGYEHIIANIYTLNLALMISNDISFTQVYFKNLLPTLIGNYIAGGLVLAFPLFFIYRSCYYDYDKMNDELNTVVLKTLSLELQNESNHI
Chain of FNT of P. ovale (PoFNT) (A0A1D3TGZ2 whole entry): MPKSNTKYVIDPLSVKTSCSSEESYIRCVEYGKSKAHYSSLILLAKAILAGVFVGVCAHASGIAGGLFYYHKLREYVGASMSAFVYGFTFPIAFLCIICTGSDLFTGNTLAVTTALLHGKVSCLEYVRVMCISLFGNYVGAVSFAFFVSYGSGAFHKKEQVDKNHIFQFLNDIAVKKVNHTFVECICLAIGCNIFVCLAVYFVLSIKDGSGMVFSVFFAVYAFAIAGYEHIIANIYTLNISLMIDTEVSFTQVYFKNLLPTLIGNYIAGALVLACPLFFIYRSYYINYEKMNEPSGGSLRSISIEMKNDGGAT

For the compound `COc1ccc(C(=O)C=C(O)C(F)(F)C(F)(F)F)c(O)c1` [compound [1], reference compound], the IC50 is 170 ± 10 nM at PfFNT wildtype, 69 ± 3 nM on FNT of P. vivax (PvFNT) (setting [3]), 212 ± 70 nM in assay [1] and 21000 ± 1000 nM at PfFNT G107S (setting [4]).
Turning to `COc1ccc(C(=O)C=C(O)C(F)(F)C(F)(F)F)cc1` [compound [2], reference compound], the IC50 was 140 ± 10 nM against PfFNT wildtype; 249 ± 80 nM on FNT of P. vivax (PvFNT) (setting [3]); 985 ± 80 nM in assay [1]; 2700 ± 200 nM on PfFNT G107S (setting [4]); roughly 900 nM at FNT of P. ovale (PoFNT); 391 ± 50 nM in assay [2].
`CC(C)(O)CC(=O)C=C(O)C(F)(F)C(F)(F)F` [compound [3], reference compound]: the half-inhibitory concentration (IC50) on PfFNT wildtype is 1100 ± 100 nM; on PfFNT G107S (setting [4]), 490000 ± 20000 nM.
The like results for `O=C(C=C(O)C(F)(F)C(F)(F)F)c1ccc[nH]1` [compound [4], reference compound] were, in that order, 160 ± 10 nM and 12000 ± 1000 nM.
With `O=C(C=C(O)C(F)(F)C(F)(F)F)c1cc[nH]c1` [compound [5], reference compound], the IC50 is 200 ± 10 nM at PfFNT wildtype and 13000 ± 1000 nM on PfFNT G107S (setting [4]).
As to `Cn1ccc(C(=O)C=C(O)C(F)(F)C(F)(F)F)c1` [compound [6], reference compound], the results for the IC50 on PfFNT wildtype and at PfFNT G107S (setting [4]) were 130 ± 10 nM and 14000 ± 1000 nM, respectively.
The like results for `O=C(C=C(O)C(F)(F)C(F)(F)F)c1cc2ccccc2o1` [compound [7], reference compound] were, in that order, 190 ± 10 nM and 17000 ± 2000 nM.
For `O=C(C=C(O)C(F)(F)C(F)(F)F)c1cccnn1` [compound [12], 4,4,5,5,5-pentafluoro-3-hydroxy-1-pyridazin-3-yl-pent-2-en-1-one], the IC50 against PfFNT wildtype was found to be 860 ± 30 nM; on PfFNT G107S, 3800 ± 800 nM.
The like results for `O=C(C=C(O)C(F)(F)C(F)(F)F)c1cnccn1` [compound [13], 4,4,5,5,5-pentafluoro-3-hydroxy-1-pyrazin-2-yl-pent-2-en-1-one] were, in that order, 460 ± 30 nM and 1200 ± 300 nM.
The like results for `O=C(C=C(O)C(F)(F)C(F)(F)F)c1ccncc1` [compound [14], 4,4,5,5,5-pentafluoro-3-hydroxy-1-(4-pyridyl)pent-2-en-1-one] were, in that order, 150 ± 30 nM and 22000 ± 7000 nM.
The like results for `O=C(C=C(O)C(F)(F)C(F)(F)F)c1ccccn1` [compound [15], 4,4,5,5,5-pentafluoro-3-hydroxy-1-(2-pyridyl)pent-2-en-1-one] were, in that order, 150 ± 10 nM and 580 ± 90 nM.
As to `O=C(C=C(O)C(F)(F)C(F)(F)F)c1cccnc1` [compound [16], 4,4,5,5,5-pentafluoro-3-hydroxy-1-(3-pyridyl)pent-2-en-1-one], the IC50 at PfFNT wildtype was found to be 110 ± 10 nM; on FNT of P. vivax (PvFNT), 229 ± 10 nM; in assay [1], 874 ± 60 nM; against PfFNT G107S it was 630 ± 50 nM; at FNT of P. ovale (PoFNT), 213 ± 30 nM; in assay [2], 214 ± 20 nM.
With `O=C(C=C(O)C(F)(F)C(F)(F)F)c1cnc2ccccc2c1` [compound [17], 4,4,5,5,5-pentafluoro-3-hydroxy-1-(3-quinolyl)pent-2-en-1-one], the IC50 was 240 ± 40 nM at PfFNT wildtype and 96000 ± 800 nM at PfFNT G107S (read-out: PfFNT G107S IC50, G107S mutant FNT, 1 mM lactate, pH 6.8, 30 s uptake).
As to `Cc1ccc(C(=O)C=C(O)C(F)(F)C(F)(F)F)cn1` [compound [18], 4,4,5,5,5-pentafluoro-3-hydroxy-1-(6-methyl-3-pyridyl)pent-2-en-1-one], the IC50 on PfFNT wildtype turned out to be 150 ± 10 nM; against PfFNT G107S, 1700 ± 300 nM.
The like results for `O=C(C=C(O)C(F)(F)C(F)(F)F)c1ccc(Cl)cn1` [compound [19], 1-(5-chloropyridin-2-yl)-4,4,5,5,5-pentafluoro-3-hydroxypent-2-en-1-one] were, in that order, 230 ± 70 nM and 510 ± 90 nM.
The like results for `COc1ccc(C(=O)C=C(O)C(F)(F)C(F)(F)F)cn1` [compound [20], 4,4,5,5,5-pentafluoro-3-hydroxy-1-(6-methoxy-3-pyridyl)pent-2-en-1-one] were, in that order, 110 ± 10 nM and 260 ± 50 nM.
`O=C(C=C(O)C(F)(F)CO)c1cccnc1` [compound [21], 4,4-difluoro-3,5-dihydroxy-1-(3-pyridyl)pent-2-en-1-one] gave an IC50 on PfFNT wildtype of 5500 nM.
`CCCCC(F)(F)C(O)=CC(=O)c1cccnc1` [compound [22], 4,4-difluoro-3-hydroxy-1-(3-pyridyl)oct-2-en-1-one]: the IC50 against PfFNT wildtype was 360 ± 50 nM; on PfFNT G107S (setting [4]) it was 24000 ± 6000 nM.
